Experimental data: US9045483B2, “Inhibition of small ubiquitin-like modifier enzymes with substituted pyrrolo[2,3-b]quinoxalines” (City of Hope, priority 2010, dated 2015)
Entries after “also recorded” stand apart in the source; their conditions may differ. Where two headings read alike, the source gives them in different places.

Experiments:
SUMO E1 [1] = target: T1, SUMO E1 (Homo sapiens (Human), UniProt Q9UBT2); settings: in the presence of Mg2+; read-out: Kd of ATP binding to E1; cited from earlier work
SUMO E1 [2] = target: T1, SUMO E1; experiment: SUMO E1 inhibition, formation of the Ubc9-SUMO thioester (biochemical assay)
[3] = system: RanGAP1 stable SUMOylation in U20S and DLD1 cells; experiment: Stable SUMOylation, RanGAP1 and RanBP2 localization by immunohistochemistry; format: cell-based; settings: 18 hours
Experimental: Cells were treated with the compound at indicated concentration for 18 hours, and then localization of RanGAP1 and RanBP2 was detected by immunohistochemistry. Nuclei are stained with DAPI.

HIV = format: cell-based
SUMO E1 [4] = target: T1, SUMO E1; experiment: NMR saturation transfer difference (STD) competition with ATP; format: binding
Source text: In (A), ATP spectra with assignments indicated, and the percentage of STD effects indicated for each resonance. Red spectrum indicates 2 s saturation at −30 ppm (control), blue spectrum (underneath red) indicates 2 s saturation of protein signals at 0 ppm, and green spectrum (bottom) indicates the difference between the red and blue spectra. […] […] The corresponding STD spectra are color-coded as indicated to the right. A region of the spectrum covering H2 of ATP and H12 and H13 from the compound are shown, with the H2 signal of ATP expanded in the inset. […] The titration data was used to estimate Kd of the compound.

[5] = system: MCF7, H1299, DLD1 and SJSA cancer cell lines; experiment: Sensitization of cancer cell lines to irradiation, MTS cell survival assay; format: cell-based; settings: for sensitization of cancer cell lines to radiation: drug 4 hours, then 4 Gy
Experimental: The cells were treated with different doses of the drug for 4 hours, followed by irradiation with 4 Gy and incubation for an additional 68 hours. […] Cell survival was assessed by MTS assays
Quinoxaline 1 was added to cultures of various cancer cell lines for 4 hours, after which cells were irradiated at 4 Gy. Forty-eight hours after irradiation, cell viability was measured by MTS assay.

ubiquitin E1 = ubiquitin E1 (Homo sapiens (Human), UniProt P22314); settings: Ubc5-ubiquitin thioester vs Ubc9-SUMO thioester
53BP1 = 53BP1 colocalization with γH2AX at DSB sites in IR-treated cells; format: cell-based; settings: 20 μM, 18 hours, 1 Gy, 1 hour recovery
Source text: (Green: γH2AX; Red: 53BP1).

Fa2N-4 cells = experiment: Toxicity on immortalized human hepatocytes, cellular ATP viability assay; format: cell-based; settings: Fa2N-4, concentrations up to 50 μM, 24 hrs
Experimental: FIG. 9 illustrates the toxicity of the SUMO inhibitor on normal human liver cells. Immortalized human hepatocytes, Fa2N-4 cells (XenoTech) were seeded at ˜50-60K cells/well, and incubated with a range of concentrations (0.01-50 μM) 1, in duplicate, for 24 hrs at 37° C., 5% CO2. Cell viability was determined by cellular ATP levels using the Luminescence ATP Detection Assay System (Tecan).

[6] = system: global SUMOylation in HT29, HCT116 and U373 cells; experiment: Global SUMOylation in cancer cell lines, Western blot with anti-SUMO2/3 antibodies; format: cell-based; settings: 18 hours; for inhibition of SUMOylation in cells: various concentrations, HCT116, HT29, U373
Experimental: Western blots (probed with anti-SUMO2/3 antibodies) of cell lysates from HT29, HCT116 and U373 cells treated with compound 1. SUMO2/3 modifies many proteins as poly-SUMO chains, and is detected as high molecular weight smears. 16c indicates the control compound 2 used at concentrations of 16 μM.
Quinoxaline 1 or 2 was added to cell culture media at various concentrations for 18 hours, after which SUMOylated proteins were detected using anti-SUMO antibodies. […] Thus, quinoxaline 1 has potent and specific inhibitory effects in various cancer cell lines.

BRCA1 = BRCA1 colocalization with γH2AX in IR-treated cells; format: cell-based; settings: 20 μM, 18 hours, 1 Gy
Source text: (Green: BRCA1; Red: γH2AX).

[7] = in vitro, read-out: IC50 for SUMO E1

T1 sequence (Q9UBT2 whole entry): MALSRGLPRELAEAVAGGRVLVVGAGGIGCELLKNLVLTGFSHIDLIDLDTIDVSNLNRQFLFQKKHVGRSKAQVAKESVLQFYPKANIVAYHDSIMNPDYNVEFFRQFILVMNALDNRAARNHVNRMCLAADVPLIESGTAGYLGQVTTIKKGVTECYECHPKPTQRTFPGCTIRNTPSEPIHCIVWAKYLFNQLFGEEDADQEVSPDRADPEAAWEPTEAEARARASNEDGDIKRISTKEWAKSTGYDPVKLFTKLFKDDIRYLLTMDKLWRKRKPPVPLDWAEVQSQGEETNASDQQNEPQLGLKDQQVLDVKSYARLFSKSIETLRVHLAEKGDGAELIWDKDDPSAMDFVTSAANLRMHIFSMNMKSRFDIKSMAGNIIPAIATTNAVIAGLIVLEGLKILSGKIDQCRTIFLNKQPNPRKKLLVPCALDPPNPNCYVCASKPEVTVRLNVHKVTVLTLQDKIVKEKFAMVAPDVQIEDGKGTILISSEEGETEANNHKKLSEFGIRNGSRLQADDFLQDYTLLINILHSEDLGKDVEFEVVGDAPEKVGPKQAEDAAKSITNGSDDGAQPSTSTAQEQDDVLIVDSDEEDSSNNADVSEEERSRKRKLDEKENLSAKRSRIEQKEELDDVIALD
T1 sequence (Q9UBE0 whole entry partner): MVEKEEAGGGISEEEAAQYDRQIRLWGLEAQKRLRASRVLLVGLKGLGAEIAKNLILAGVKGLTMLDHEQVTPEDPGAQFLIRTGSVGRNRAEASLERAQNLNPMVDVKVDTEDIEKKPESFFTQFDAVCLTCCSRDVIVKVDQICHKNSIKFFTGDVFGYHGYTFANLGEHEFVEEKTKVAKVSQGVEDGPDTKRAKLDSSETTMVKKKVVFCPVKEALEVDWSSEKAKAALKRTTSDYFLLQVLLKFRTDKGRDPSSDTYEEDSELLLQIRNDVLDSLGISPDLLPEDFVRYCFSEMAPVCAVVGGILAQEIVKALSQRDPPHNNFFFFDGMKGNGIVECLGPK
Sequence of ubiquitin E1 (P22314 whole entry, looked up): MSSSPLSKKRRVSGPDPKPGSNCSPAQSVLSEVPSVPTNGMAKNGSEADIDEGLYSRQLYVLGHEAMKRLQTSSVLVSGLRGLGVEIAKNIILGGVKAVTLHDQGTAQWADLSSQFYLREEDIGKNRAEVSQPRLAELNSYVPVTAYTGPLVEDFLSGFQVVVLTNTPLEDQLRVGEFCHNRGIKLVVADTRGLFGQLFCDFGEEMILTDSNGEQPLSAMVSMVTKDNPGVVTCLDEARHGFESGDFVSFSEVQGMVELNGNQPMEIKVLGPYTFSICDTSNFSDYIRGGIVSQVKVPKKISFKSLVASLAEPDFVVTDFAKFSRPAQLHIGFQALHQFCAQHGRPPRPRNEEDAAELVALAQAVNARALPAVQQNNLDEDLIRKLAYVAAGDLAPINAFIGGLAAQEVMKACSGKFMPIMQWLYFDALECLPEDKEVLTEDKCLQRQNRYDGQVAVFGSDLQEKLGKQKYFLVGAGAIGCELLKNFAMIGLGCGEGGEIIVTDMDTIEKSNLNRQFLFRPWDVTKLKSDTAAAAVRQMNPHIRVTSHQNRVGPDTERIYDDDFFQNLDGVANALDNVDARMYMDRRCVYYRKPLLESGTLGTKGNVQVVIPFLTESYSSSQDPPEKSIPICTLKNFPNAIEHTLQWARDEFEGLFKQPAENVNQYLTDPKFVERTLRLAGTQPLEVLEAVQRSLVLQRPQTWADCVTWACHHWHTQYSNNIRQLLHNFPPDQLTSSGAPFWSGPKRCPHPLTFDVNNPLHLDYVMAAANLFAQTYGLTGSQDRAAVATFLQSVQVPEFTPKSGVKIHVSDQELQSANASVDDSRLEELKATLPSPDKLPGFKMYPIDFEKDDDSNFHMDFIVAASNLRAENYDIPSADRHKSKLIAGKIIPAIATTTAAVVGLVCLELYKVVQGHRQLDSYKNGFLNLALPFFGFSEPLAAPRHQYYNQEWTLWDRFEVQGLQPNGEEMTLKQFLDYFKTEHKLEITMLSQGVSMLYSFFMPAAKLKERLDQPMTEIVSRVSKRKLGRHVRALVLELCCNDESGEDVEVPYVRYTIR

## Nc1ncnc2c1ncn2[C@@H]1O[C@H](COP(=O)(O)OP(=O)(O)OP(=O)(O)O)[C@@H](O)[C@H]1O [ATP]
SUMO E1 [1]
  Kd: ~0.2 µM

## CCCCn1c(NS(=O)(=O)c2ccccc2)c(S(=O)(=O)c2ccc(C)cc2)c2nc3ccccc3nc21 [Tricyclic Compound 1]
SUMO E1 [2]; in vitro, listed as compound 1, read-out: IC50 for SUMO E1
  IC50: ~0.5 µM
SUMO E1 [2]; [7]
  IC50: 0.5 µM
[3]
  effect on stable SUMOylation: does not disrupt stable SUMOylation
HIV
  inhibition of HIV infection: inhibited HIV infection in a dose dependent manner; also recorded: inhibits HIV infection in a dose-dependent manner
SUMO E1 [4]
  competition with ATP binding to E1: strong competition with ATP binding
SUMO E1 [4]; 30 μM inhibitor, 80 μM ATP, 2 μM E1, 0.4 mM Mg2+
  reduction in the STD of ATP: more than 60%
SUMO E1 [4]; estimated from competitive STD data, read-out: Kd (inhibitor-enzyme dissociation constant)
  Kd: ~0.18 µM
SUMO E1 [4]; listed as quinoxaline 1
  competition with ATP binding to E1: competed with the binding of ATP
[5]
  toxicity in cancer cell lines: induced some toxicity in selected cancer cell lines
[5]; listed as MLS-0207587
  sensitization of cancer cell lines to radiation: significantly lower survival rate
[5]; listed as Quinoxaline 1
  sensitization of cancer cell lines to radiation: significantly enhanced the sensitivity
Ubiquitin E1
  IC50 for ubiquitin E1 relative to SUMO E1 (selectivity): > 100 fold
Ubiquitin E1; listed as quinoxaline 1
  IC50 for ubiquitin E1 relative to SUMO E1 (selectivity): more than 100 fold
53BP1; DLD1 cells
  53BP1 colocalization with γH2AX: inhibits 53BP1 colocalization with γH2AX
53BP1; U20S cells
  53BP1 colocalization with γH2AX: inhibits 53BP1 colocalization with γH2AX
Fa2N-4 cells
  toxicity to human hepatocytes: did not cause significant toxicity
Fa2N-4 cells; listed as Quinoxaline 1
  toxicity to human hepatocytes: no toxicity was detected
[6]; 16 μM
  inhibition at 16 µM: > 80%
[6]
  inhibition of SUMOylation in cells: inhibits global SUMOylation in a dose-dependent manner
[6]; listed as Quinoxaline 1
  inhibition of SUMOylation in cells: inhibited SUMOylation in a dose-dependent manner
BRCA1; DLD1 cells, 1 hour recovery
  BRCA1 colocalization with γH2AX: inhibits BRCA1 colocalization with γH2AX
BRCA1; U20S cells, 1 hour
  BRCA1 colocalization with γH2AX: inhibits BRCA1 colocalization with γH2AX

## CCCCn1c(NC(=O)c2ccccc2Cl)c(C#N)c2nc3ccccc3nc21 [Tricyclic Compound 2]
SUMO E1 [2]; [7]
  IC50: 20 µM

## CCCCn1c(NC(=O)c2ccccc2)c(C#N)c2nc3ccccc3nc21 [Tricyclic Compound 3]
SUMO E1 [2]; [7]
  IC50: 3.6 µM

## CCCCn1c(NC(C)=O)c(C#N)c2nc3ccccc3nc21 [Tricyclic Compound 4]
SUMO E1 [2]; [7]
  IC50: 8.3 µM

## N#Cc1c(NC(=O)c2ccccc2Cl)n(Cc2ccccc2)c2nc3ccccc3nc12 [Tricyclic Compound 5]
SUMO E1 [2]; [7]
  IC50: 25 µM

## CCCCn1c(N)c(S(=O)(=O)c2ccccc2)c2nc3ccccc3nc21 [Tricyclic Compound 6]
SUMO E1 [2]; [7]
  IC50: 64 µM

## CCCCn1c(NC(=O)c2ccccc2)c(S(=O)(=O)c2ccccc2)c2nc3ccccc3nc21 [Tricyclic Compound 7]
SUMO E1 [2]; [7]
  IC50: 98 µM

## CCCCn1c(NC(=O)c2ccc(Cl)cc2)c(C#N)c2nc3cc(C)c(C)cc3nc21 [Tricyclic Compound 8]
SUMO E1 [2]; [7]
  IC50: 4.5 µM

## CCCCNC(=O)c1c(NC(=O)c2ccccc2Cl)n(Cc2ccccc2)c2nc3ccccc3nc12 [Tricyclic Compound 9]
SUMO E1 [2]; [7]
  IC50: 1.1 µM

## CCCCn1c(NC(=O)c2ccco2)c(C#N)c2nc3ccccc3nc21 [Tricyclic Compound 10]
SUMO E1 [2]; [7]
  IC50: 5.7 µM

## CCCCn1c(NC(=O)c2ccccc2Cl)c(S(=O)(=O)c2ccccc2)c2nc3ccccc3nc21 [Tricyclic Compound 11]
SUMO E1 [2]; [7]
  IC50: > 100 µM

## C=CCn1c(NS(=O)(=O)c2ccccc2)c(S(=O)(=O)c2ccc(C)cc2)c2nc3ccccc3nc21 [Tricyclic Compound 12]
SUMO E1 [2]; [7]
  IC50: 0.5 µM

## CCCCn1c(NC(=O)c2ccc(F)cc2)c(C#N)c2nc3ccccc3nc21 [Tricyclic Compound 13]
SUMO E1 [2]; -BSA, read-out: IC50(-BSA)
  IC50: 0.76 µM
